Tests used:
hPPARdelta [1] = biological target: T1, hPPARdelta (Homo sapiens, UniProt Q03181); assay: PPAR activation: Gal4-hPPARδ chimera luciferase transactivation in COS-7 cells, Method 1; type: cell-based; conditions: COS-7, 24 h; for Emax: maximum percentage response relative to the reference GW501516, read-out: hPPARdelta % max
T1 construct: expressed in transfected cells; host or cells: COS-7 (monkey kidney fibroblasts)
T1 sequence (Q03181 211-439 limits assumed): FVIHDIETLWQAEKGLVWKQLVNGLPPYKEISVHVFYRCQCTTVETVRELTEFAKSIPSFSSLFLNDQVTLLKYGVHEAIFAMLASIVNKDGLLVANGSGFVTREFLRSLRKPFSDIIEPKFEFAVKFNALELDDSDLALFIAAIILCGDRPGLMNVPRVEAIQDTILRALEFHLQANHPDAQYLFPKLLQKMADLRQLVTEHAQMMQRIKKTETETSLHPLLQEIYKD
Protocol: (§1) The activation of the PPARs was evaluated in vitro on a line of monkey kidney fibroblasts (COS-7) by measuring the transcriptional activity of chimeras constituted of the DNA binding domain of the Gal4 transcription factor of yeast and the ligand binding domain of the various PPARs. The compounds were tested at doses between 10^−5 and […] on the chimeras Gal4-PPARα, γ or δ, and the corresponding EC50 values were determined.
(§2) The COS-7 cells were obtained from the ATCC and were cultivated in DMEM medium supplemented with 10% (v/v) of fetal calf serum, 100 U/ml of penicillin (Gibco, Paisley, UK) and 2 mM of L-glutamine (Gibco, Paisley, UK). The cells were incubated at 37° C. in a humid atmosphere containing 5% CO2.
(§3) The plasmids Gal4(RE)_TkpGL3, pGal4-hPPARα, pGal4-hPPARγ, pGal4-hPPARδ and pGal4-φ are described in the literature (Raspe E et al., 1999). The constructs pGal4-hPPARα, pGal4-hPPARγ and pGal4-hPPARδ were obtained by cloning DNA fragments amplified by PCR corresponding to the DEF domains of the human nuclear receptors PPARα, PPARγ and PPARδ in the pGal4-φ vector.
(§4) The COS-7 cells in suspension were transfected with 150 ng of DNA per well, with a pGal4-PPAR/Gal4(RE)_TkpGL3 ratio of 1/10, in the presence of 10% fetal calf serum. The cells were seeded in 96-well plates (4×10^4 cells/well) and then incubated at 37° C. for 24 hours. Activation with the test compounds is carried out for 24 h at 37° C. in serum-free medium. At the end of the experiment, the cells were lysed and the luciferase activity was determined using the Steady-Lite™ HTS (Perkin Elmer) following the supplier's recommendations.

hPPARalpha [2] = biological target: T2, hPPARalpha (Homo sapiens, UniProt Q07869); assay: PPAR activation: Gal4-hPPARα chimera luciferase transactivation in COS-7 cells, Method 1; type: cell-based; conditions: COS-7, 24 h; for Emax: maximum percentage response relative to the reference phenofibric acid, read-out: hPPARalpha % max
T2 construct: expressed in transfected cells; host or cells: COS-7 (monkey kidney fibroblasts)
T2 sequence (Q07869 239-466 limits assumed): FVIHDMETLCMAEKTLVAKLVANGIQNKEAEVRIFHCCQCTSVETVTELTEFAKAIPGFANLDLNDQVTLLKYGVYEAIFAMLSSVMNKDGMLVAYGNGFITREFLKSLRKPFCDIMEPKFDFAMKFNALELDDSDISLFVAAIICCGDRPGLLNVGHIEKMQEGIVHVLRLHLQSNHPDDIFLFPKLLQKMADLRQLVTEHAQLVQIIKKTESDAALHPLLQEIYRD
Protocol: as §1, §2, §3, §4

hPPARgamma [3] = biological target: T3, hPPARgamma (Homo sapiens, UniProt P37231); assay: PPAR activation: Gal4-hPPARγ chimera luciferase transactivation in COS-7 cells, Method 1; type: cell-based; conditions: COS-7, 24 h; for Emax: maximum percentage response relative to the reference rosiglitazone, read-out: hPPARgamma % max
T3 construct: expressed in transfected cells; host or cells: COS-7 (monkey kidney fibroblasts)
T3 sequence (P37231 238-503 limits assumed): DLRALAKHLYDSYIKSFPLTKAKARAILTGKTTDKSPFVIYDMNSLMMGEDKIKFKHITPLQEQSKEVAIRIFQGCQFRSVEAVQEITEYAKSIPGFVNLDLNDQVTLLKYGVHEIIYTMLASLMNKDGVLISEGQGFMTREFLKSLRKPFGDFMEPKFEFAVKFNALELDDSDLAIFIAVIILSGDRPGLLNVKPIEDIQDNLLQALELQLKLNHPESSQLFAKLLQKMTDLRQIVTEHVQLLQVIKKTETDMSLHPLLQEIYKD
Protocol: as §1, §2, §3, §4

hPPARalpha [4] = biological target: T2, hPPARalpha; assay: PPAR activation: Gal4-hPPARα chimera luciferase transactivation in COS-7 cells, Method 2; type: cell-based; conditions: COS-7, 24 h; for EC50: 1% Ultroser; for Emax: maximum percentage response relative to the reference phenofibric acid, read-out: hPPARalpha % max
Protocol: as §1
(§5) The principle, the cells and the plasmids used for example 5 were also employed in this example. Only the application of the transfection stage is slightly different. The details are presented below.
(§6) The adherent COS-7 cells are transfected with 40 μg of DNA per 225 cm^2 dish, with a pGal4-PPAR/Gal4(RE)_TkpGL3 ratio of 1/10, in the presence of 10% fetal calf serum. The cells are then detached and seeded in the absence of serum in 384-well plates (2×10^4 cells/well) and incubated for 4 hours at 37° C. The compounds are then diluted in a 96-well plate and transferred to the 384-well plate. Activation with the test compounds is carried out for an additional 24 h at 37° C. in the presence of 1% of Ultroser™ lipid-free synthetic serum (Biosepra). These last 2 stages are automated using a Genesis Freedom 200™ station (Tecan). At the end of the experiment, the cells are lysed and the luciferase activity is determined using the Steady-Lite™ HTS (Perkin Elmer) following the supplier's recommendations.

hPPARdelta [5] = biological target: T1, hPPARdelta; assay: PPAR activation: Gal4-hPPARδ chimera luciferase transactivation in COS-7 cells, Method 2; type: cell-based; conditions: COS-7, 24 h; for EC50: 1% Ultroser; for Emax: maximum percentage response relative to the reference GW501516, read-out: hPPARdelta % max
Protocol: as §1, §5, §6

hPPARgamma [6] = biological target: T3, hPPARgamma; assay: PPAR activation: Gal4-hPPARγ chimera luciferase transactivation in COS-7 cells, Method 2; type: cell-based; conditions: COS-7, 24 h, Method 2; for Emax: maximum percentage response relative to the reference rosiglitazone, read-out: hPPARgamma % max; for EC50: 1% Ultroser, read-out: hPPARgamma EC50
Protocol: The activation of the PPARs was evaluated in vitro on a line of monkey kidney fibroblasts (COS-7) by measuring the transcriptional activity of chimeras constituted of the DNA binding domain of the Gal4 transcription factor of yeast and the ligand binding domain of the various PPARs.
Only the application of the transfection stage is slightly different. The details are presented below.
as §6

Row | EC50 (hPPARdelta [1]) [nM] | Emax (hPPARdelta [1]) [%] | EC50 (hPPARalpha [2]) [nM] | Emax (hPPARalpha [2]) [%] | melting point [°C] | EC50 (hPPARgamma [3]) [nM] | Emax (hPPARgamma [3]) [%] | EC50 (hPPARalpha [4]) [nM] | Emax (hPPARalpha [4]) [%] | EC50 (hPPARdelta [5]) [nM] | Emax (hPPARdelta [5]) [%] | Emax (hPPARgamma [6]) [%] | EC50 (hPPARgamma [6]) [nM] | Structure (SMILES)
1 | 45 | 93 | 43 | 46 | 135 to 136 | 660 | 24 |  |  |  |  |  |  | CC(C)(Oc1ccc(CCC(=NO)c2ccc(-c3ccc(C(F)(F)F)cc3)s2)c(Cl)c1Cl)C(=O)O (mixture of isomers) [Compound 49, 2-(2,3-dichloro-4-(3-(hydroxyimino)-3-(5-(4-(trifluoromethyl)-phenyl)thien-2-yl)propyl)phenoxy)-2-methylpropanoic acid]
2 |  |  |  |  |  |  |  | 7860 | 41 | 530 | 92 | 55 | 4110 | CC(C)(Oc1ccc(CCC(OCc2ccc(I)cc2)c2ccc(-c3ccc(C(F)(F)F)cc3)s2)c(Cl)c1Cl)C(=O)O (centres unmarked) [Compound 6, 2-(4-(3-(4-iodobenzyloxy)-3-(5-(4-(trifluoromethyl)phenyl)thien-2-yl)propyl)-2,3-dichlorophenoxy)-2-methylpropanoic acid]
3 | 19 | 84 | 6 | 54 | 169 to 171 | 280 | 41 |  |  |  |  |  |  | CCC(Oc1ccc(CCC(=O)c2ccc(-c3ccc(C(F)(F)F)cc3)s2)c(Cl)c1Cl)C(=O)O (centres unmarked) [Compound 9, 2-(2,3-dichloro-4-(3-oxo-3-(5-(4-(trifluoromethyl)phenyl)thien-2-yl)propyl)phenoxy)butanoic acid]
4 |  | 1 | 977 | 20 | 167 to 169 | 490 | 58 |  |  |  |  |  |  | CC(C)(CCCOc1ccc(CCC(=O)c2ccc(-c3ccc(C(F)(F)F)cc3)s2)c(Cl)c1Cl)C(=O)O [Compound 13, 5-(2,3-dichloro-4-(3-oxo-3-(5-(4-(trifluoromethyl)phenyl)thien-2-yl)propyl)phenoxy)-2,2-dimethylpentanoic acid]
5 | 253 | 88 | 163 | 46 | 217 to 219 | 5660 | 32 |  |  |  |  |  |  | O=C(O)COc1ccc(CCC(=O)c2ccc(-c3ccc(C(F)(F)F)cc3)s2)c(Cl)c1Cl [Compound 15, 2-(2,3-dichloro-4-(3-oxo-3-(5-(4-(trifluoromethyl)phenyl)thien-2-yl)propyl)phenoxy)acetic acid]
6 |  | 0 | 228 | 5 | 189 to 191 | 190 | 27 |  |  |  |  |  |  | O=C(CCc1ccc(OC(C(=O)O)c2ccccc2)c(Cl)c1Cl)c1ccc(-c2ccc(C(F)(F)F)cc2)s1 (centres unmarked) [Compound 17, 2-(2,3-dichloro-4-(3-oxo-3-(5-(4-(trifluoromethyl)phenyl)thien-2-yl)propyl)phenoxy)-2-phenylacetic acid]
7 | 15 | 85 | 1 | 47 | 136 to 137 | 180 | 27 |  |  |  |  |  |  | CC(C)(Oc1ccc(CCC(=O)c2ccc(-c3ccc(C(F)(F)F)cc3)s2)cc1Cl)C(=O)O [Compound 19, 2-(2-chloro-4-(3-oxo-3-(5-(4-(trifluoromethyl)phenyl)thien-2-yl)-propyl)phenoxy)-2-methylpropanoic acid]
8 | 8 | 97 | 17 | 50 | 104 to 106 | 80 | 63 |  |  |  |  |  |  | CC(C)(Oc1ccc(CCC(=O)c2ccc(-c3ccc(C(F)(F)F)cc3)s2)c(Cl)c1)C(=O)O [Compound 21, 2-(3-chloro-4-(3-oxo-3-(5-(4-(trifluoromethyl)phenyl)thien-2-yl)-propyl)phenoxy)-2-methylpropanoic acid]
9 | 589 | 77 | 1310 | 47 |  | 2820 | 30 |  |  |  |  |  |  | O=C(O)COc1ccc(CCC(OCc2ccccc2)c2ccc(-c3ccc(C(F)(F)F)cc3)s2)cc1F (centres unmarked) [Compound 27, 2-(4-(3-(benzyloxy)-3-(5-(4-(trifluoromethyl)phenyl)thien-2-yl)-propyl)-2-fluorophenoxy)acetic acid]
10 |  |  |  |  |  |  |  | 50 | 51 | 1530 | 80 | 45 | 3930 | CCC(Oc1ccc(CCC(O)c2ccc(-c3ccc(C(F)(F)F)cc3)s2)cc1F)C(=O)O (centres unmarked) [Compound 30, 2-(2-fluoro-4-(3-hydroxy-3-(5-(4-(trifluoromethyl)phenyl)thien-2-yl)propyl)phenoxy)butanoic acid]
11 |  |  |  |  |  |  |  | 610 | 49 | 10 | 76 | 36 | 1490 | CCOC(CCc1ccc(OC(C)(C)C(=O)O)c(Cl)c1Cl)c1ccc(-c2ccc(C(F)(F)F)cc2)s1 (centres unmarked) [Compound 41, 2-(2,3-dichloro-4-(3-ethoxy-3-(5-(4-(trifluoromethyl)phenyl)thien-2-yl)propyl)phenoxy)-2-methylpropanoic acid]
12 |  |  |  |  |  |  |  | 2000 | 28 | 260 | 82.1 | 47 | 890 | CC(C)(Oc1ccc(CCC(OCC2CCCCC2)c2ccc(-c3ccc(C(F)(F)F)cc3)s2)c(Cl)c1Cl)C(=O)O (centres unmarked) [Compound 42, 2-(2,3-dichloro-4-(3-(cyclohexylmethoxy)-3-(5-(4-(trifluoromethyl)phenyl)thien-2-yl)propyl)phenoxy)-2-methylpropanoic acid]
13 | 216 | 67 | 227 | 47 |  | 970 | 56 |  |  |  |  |  |  | CCC(Oc1ccc(CCC(OCc2ccccc2)c2ccc(-c3ccc(C(F)(F)F)cc3)s2)cc1F)C(=O)O (centres unmarked) [Compound 70, 2-(4-(3-(benzyloxy)-3-(5-(4-(trifluoromethyl)phenyl)thien-2-yl)propyl)-2-fluorophenoxy)butanoic acid]
